Values quoted from earlier work as cited in patent publication US20090087487A1, “Paliperidone sustained release formulation” (priority 2007, published 2009).

In the case of `Cc1nc2n(c(=O)c1CCN1CCC(c3noc4cc(F)ccc34)CC1)CCCC2O` (stereo not shown) [Paliperidone, 4H-Pyrido[1,2-a]pyrimidin-4-one, 3-[2-[4-(6-fluoro-1,2-benzisoxazol-3-yl)-1-piperidinyl]ethyl]-6,7,8,9-tetrahydro-9-hydroxy-2-methyl], the “solubility in 0.1 N hydrochloric acid” value (0.1 N hydrochloric acid) is given as “soluble”, the solubility in methanol (methanol) is given as “soluble” and the “solubility in methylene chloride” value (methylene chloride) is given as “freely soluble”. For the same compound, the solubility in water (water) was “practically insoluble”.
